{"source": "patent US12239686B2", "about": "“Immune checkpoint inhibitor combinations” (LYTIX BIOPHARMA AS, priority 2014, dated 2025)", "key": {"HL-60/ADR": {"system": "HL-60/ADR", "experiment": "In vitro cytotoxic activity, MTS assay; resistance index", "format": "cell-based, human", "conditions": "HL-60/ADR vs sensitive HL-60 (doxorubicin resistance)", "method": "(§1) Tumor cells were grown as adherent monolayers or as suspensions at 37° C. in a humidified atmosphere (5% CO2, 95% air). The culture medium was RPMI 1640 containing 2 mM L-glutamine (Lonza, Belgium) and supplemented with 10% fetal bovine serum (FBS, Lonza). For experimental use, the adherent cells were detached from the culture flask by a 5-minute treatment with trypsin-versene (Lonza), diluted in Hanks' medium without calcium or magnesium (Lonza) and neutralized by addition of complete culture medium. Cells were counted in a hemocytometer and their viability was assessed by 0.25% trypan blue exclusion.\n(§2) Tumor cells were plated in 96-well flat-bottom microtitration plates (Nunc, Dutscher, Brumath, France) and incubated at 37° C. for 24 hours before treatment in 190 μl of drug-free culture medium supplemented or not with 10% FBS for adherent or suspension growing cell lines, respectively.\n(§3) The adherent cell lines were washed once with 200 μl FBS-free culture medium before treatment. Tumor cells were incubated for 4 hours with 10 concentrations of compounds in ¼ dilution step with a top dose of 400 μM (range 4×10^−4 to 4×10^−10 M), with 1% (final concentration) Triton X-100 as positive control and FBS-free culture medium as negative control. The cells (190 μl) were incubated in a 200 μl final volume of FBS-free culture medium containing test substances at 37° C. under 5% CO2.\n(§4) Three independent experiments were performed, each concentration being tested in quadruplicate. Control cells were treated with vehicle alone. At the end of treatments, the cytotoxic activity was evaluated by a MTS assay (see § 3.3).\n(§5) Like MTT, MTS is bioreduced by cells into a formazan product that is directly soluble in culture medium without processing, unlike MTT.\n(§6) At the end of the cells treatment, 40 μl of a 0.22 μm filtered freshly combined solution of MTS (20 ml at 2 mg/ml, Ref G1111, Batch 235897, Exp 03/2009, Promega, Charbonnières, France) and PMS (1 ml at 0.92 mg/ml, Ref P9625, Batch 065K0961, Sigma) in Dulbecco's Phosphate Buffered Saline (DPBS, Ref 17-513Q, Batch 6MB0152, Cambrex), were added in each well. Culture plates were incubated for 2 h at 37° C. Absorbency (OD) were measured at 490 nm in each well using VICTOR^3TM 1420 multilabeled counter (Wallac, PerkinElmer, Courtaboeuf, France).\n(§7) [formula] • The OD values are the mean of 4 experimental measurements. • IC50: drug concentration to obtain a 50% inhibition of cell proliferation.\n(§8) The dose-response curves were plotted using XLFit 3 (IDBS, United Kingdom). The IC50 determination values were calculated using the XLFit 3 software from semi-log curves. Individual IC50 determination values as well as mean and SD values were generated.\n(§9) Resistance index was calculated using the following formula: […]\n(§10) Resistance index was calculated for each compound for each couple of sensitive and resistant cell lines. Individual resistance index was calculated when IC50 values of both sensitive and corresponding resistant cell lines were determined within same experiment. In addition, resistance index was also calculated ratio of mean IC50 values obtained during three independent experiments."}, "IGROV-1/CDDP": {"system": "IGROV-1/CDDP", "format": "cell-based, human", "method": "as §1, §2, §3, §4, §5, §6, §7, §8, §9, §10"}, "MCF-7/mdr": {"system": "MCF-7/mdr", "format": "cell-based, human", "method": "as §1, §2, §3, §4, §5, §6, §7, §8, §9, §10"}, "[1]": {"system": "murine A20 B cell lymphoma cells", "experiment": "Re-challenge with A20 cells in mice with complete tumour regression", "format": "in vivo", "method": "Methods: Female Balb-c mice (n=4), previously treated with LTX-315, 1 mg) or (n=9); previously treated with LTX-315 0.5 or 1 mg) were re-inoculated (s.c. in the abdominal area) with either murine A20 B cell lymphoma cells or CT26WT colon carcinoma cells (5 million) respectively 6 weeks following initial treatment with LTX-315. Tumour growth was monitored for up to 36 days following re-inoculation."}, "[2]": {"system": "murine A20 B-cell lymphoma", "experiment": "Adoptive spleen cell transfer, A20 B-cell lymphoma model", "format": "in vivo, mice", "conditions": "donors: LTX-315 1 mg intratumoural once daily 3 days, complete regression", "method": "[…] Balb/c mice (n=32) were each inoculated with A20 cells (5 million in 50 μL s.c.) on the abdominal surface. Once tumours had reached 20 mm^2 they were injected with LTX-315 (1 mg) injected intratumourally, once daily for 3 days, in a volume of 50 μL. Tumour size (mm^2) and body weight were subsequently monitored and a further injection of LTX-315 was given if any tumour re-growth was observed. Subsequently, mice showing complete tumour regression were sacrificed and used as donors for transfer of splenocytes while naive donor mice were used as controls. Spleens from donor mice were excised and cells isolated. Naive receiver mice were irradiated and divided into 2 groups. Group 1 received isolated splenocytes from cured mice, whereas group 2 received isolated splenocytes from naive mice. Freshly prepared cells were injected (20×106 per 100 μl) via the tail vein. Twenty four hours later receiver mice were inoculated with 5 million murine A20 B-cell lymphoma cells on the abdominal surface as described above. Tumour size and body weight were monitored until the maximum tumour burden of ˜125 mm^2 was reached, or a serious adverse events occurred (i.e. wound formation due to tumour tissue necrosis) at which point mice were sacrificed."}, "human A547 cells": {"system": "human A547 cells", "experiment": "TEM, mitochondrial membrane", "format": "cell-based", "conditions": "10 μg/ml, 60 minutes", "method": "FIG. 16 LTX-315 disintegrates the mitochondria membrane. TEM images of FIG. 16a: human A547 melanoma cells treated with LTX-315 (10 μg/ml) for 60 minutes compared to FIG. 16b: control cells."}, "A375 cells": {"system": "A375 cells", "experiment": "Release of cytochrome-C, ELISA of supernatant", "format": "cell-based, human", "conditions": "35 μM; 5, 15, 45 min", "method": "A375 cells were seeded as with HMGB1 studies, and treated with 35 μM for different time points (5, 15, 45). Supernatants were collected and concentrated as with HMGB1 studies, and samples from the supernatants were analyzed using a 4.5 hour solid form Cytochrome C-Elisa kit (R&D Systems, USA, #DCTC0) following the manufacturer's description. Shortly thereafter, a 50% diluted sample was analyzed and the optical density was determined using a microplate reader set at 450 nm, and […]. A standard curve was generated for each set of samples assayed. Samples were run in four parallels, and the cytochrome-c released into the supernatant was expressed as a fold over the level of cytochrome-c in the supernatant of untreated cells."}}, "note": "Non-standard residues stand in square brackets, D forms with d. Residues, ends and D or L forms follow the SMILES beside them. Dip = N[C@H](C(=O)O)C(c1ccccc1)c1ccccc1"}
{"smiles": "NCCCC[C@H](NC(=O)[C@@H](NC(=O)[C@H](Cc1c[nH]c2ccccc12)NC(=O)[C@H](CCCCN)NC(=O)[C@H](CCCCN)NC(=O)[C@H](Cc1c[nH]c2ccccc12)NC(=O)[C@H](Cc1c[nH]c2ccccc12)NC(=O)[C@H](CCCCN)NC(=O)[C@@H](N)CCCCN)C(c1ccccc1)c1ccccc1)C(N)=O", "note": "[LTX-315, K-K-W-W-K-K-W-Dip-K-NH2] (H-KKWWKKW[Dip]K-NH2)", "values": [{"measurement": "Resistance index (RI)", "setting": "HL-60/ADR", "result": 1.45}, {"measurement": "Resistance index (RI)", "setting": "IGROV-1/CDDP; IGROV-1/CDDP vs IGROV-1 (cisplatin resistance)", "result": 0.50}, {"measurement": "IC50", "setting": "IGROV-1/CDDP; IGROV-1/CDDP, resistant", "result": 3190, "unit": "nM"}, {"measurement": "Resistance index (RI)", "setting": "MCF-7/mdr; MCF-7/mdr vs sensitive MCF-7 (doxorubicin resistance)", "result": 1.12}, {"measurement": "IC50", "setting": "MCF-7/mdr; MCF-7/mdr, resistant", "result": 1960, "unit": "nM"}, {"measurement": "tumour growth after re-inoculation compared with control animals", "setting": "[1]; 4 mice previously treated with LTX-315 1 mg, re-inoculated 6 weeks later, P<0.006", "result": "Significant inhibition"}, {"measurement": "mice with complete tumour regression after re-inoculation", "setting": "[1]; of 4 re-inoculated mice", "result": 3, "unit": "mice"}, {"measurement": "animals with relapse after re-inoculation", "setting": "[1]; of 4 re-inoculated mice, 3 weeks later", "result": 1, "unit": "animal"}, {"measurement": "tumour growth in irradiated recipients of splenocytes from LTX-315-cured donors vs naive donors", "setting": "[2]", "result": "Inhibition of tumour growth was observed"}, {"measurement": "effect on the mitochondrial membrane (TEM)", "setting": "human A547 cells", "result": "disintegration of the mitochondrial membrane"}, {"measurement": "cytochrome-C in the supernatant vs untreated control cells", "setting": "A375 cells", "result": "three times more cytochrome-C in the supernatant compared to untreated control cells"}]}
